Entries after “also recorded” stand apart in the source; their conditions may differ.
Key:
[1] = system: tonic extensive convulsion (maximal electroshock-induced seizures); test: Activity against maximal electroshock-induced seizures in mice; type: in vivo, mouse (Slc:ddy male mice); details: oral
Description: In each group six Slc: ddy male mice weighing 26 to 31 g (5 weeks) were employed. Sixty minutes after oral administration of a test compound, corneal electrodes which were wet by physiological saline were contacted with both eyes of a mouse. Then, appearance of tonic extensive convulsion (TE) caused by electrifying under a stimulation condition of 50 mA, 1000 V and 0.2 sec by means of the apparatus of Woodburg & Davenport (made by Kyoto Keisokuki) was judged as indication.
Each of diphenylhydantoin, the compounds Nos. 2, 4, 5, 6, 7, 50, 51 and 52 of the present invention (refer Table 1, hereinafter the same) and nimodipine was suspended in a 0.5% solution of methyl cellulose to subject the test. Flunarizine was suspended in a 5% solution of gum arabic to subject the test.

[2] = system: immobility time of forced swimming test; test: Activity against immobility time of forced swimming test in mice; type: in vivo, mouse (Slc:ICR male mice); details: oral
Protocol: In each group 6 Slc:ICR male mice weighing 25 to 32 g (5 weeks) were bred at the room temperature of 22° to 24° C. under an environment of 60% humidity for 1 week, and then the bred mice were subjected to the following test. The test was carried out by monitering action to voluntarily escape with TV camera when a mouse was put into a cylinder of which inner diameter was 11 cm wherein 17 cm of water being the temperature 25° C. as added. As indication immobility time for 6 minutes was measured. In the test mice were employed which were compulsorily swun for 6 minutes in once per day for continuous 3 day. The investigation for immobility time was carried out by measuring immobility time for 6 minutes 1 hour after oral administration of a test compound. Each of test compound was suspended in a 0.5% solution of methyl cellulose used as a control group. Significant difference is shown with the significance level (* : p<0.05) obtained by comparing data of control group by LSD method.

[3] = system: tonic extensive convulsion caused by pentylenetetrazole; test: Activity against convulsion caused by pentylenetetrazole in mice; type: in vivo, mouse (Slc:ddy male mice); details: oral
Protocol: In each group 4-8 Slc:ddy male mice weighing 24 to 32 g (5 weeks) were bred at room temperature of 22° to 24° C. under an environment of 60% humidity for 1 week, and then the bred mice were subjected to the following test. The test was carried out as the following procedure. One hour after the oral administration of a test compound, 40 mg/kg of pentylenetetrazole was administered in a caudal vein. Appearance of tonic extensive convulsion caused by pentylenetetrazole was measured as indication, and anticonvulsive activity was examined. Each of test compound was suspended in a 0.5% solution of methyl cellulose used as a control group.

blood pressure = test: Activity for blood pressure in rats; type: in vivo, rat (Wister male rats); details: oral; for Blood pressure: 100 mg/kg; for activity for decreasing blood pressure (in words): normal rats
Protocol: In each group 4 Wister male rats weighing 200 to 300 g (10 to 15 weeks) were employed. The day before a test, rats were anesthetized with eter, and a polyethylene tube was inserted into aorta abdominalis of a rat. The other end of the polyethylene tube was led out of the rat's body. The led polyethylene tube was connected with a pressure transducer (RM-85, made by Yamamoto Kohden). Blood pressure was measured under a condition of no restriction.

[4] = system: decapitation induced hypoxia; test: Activity against decapitation induced hypoxia in mice; type: in vivo, mouse (Slc:ddy male mice); details: oral; for inhibition in vivo at 10 mg/kg / inhibition in vivo at 30 mg/kg: Mus musculus, 1 h, 60 min before decapitation, duration of gasping vs control, read-out: Inhibition rate
Protocol: In each group five Slc:ddy male mice weighing 20 to 22 g (4 weeks) were employed. Sixty minutes after oral administration of a test compound, mice were decapitated with a guillotine. After the decapitation, duration of gasping of head was measured with a timer (CT-916 Type, made by HATTORI SEIKO CO., LTD.) gearing into the guillotine.
Each of test compound was suspended in a 0.5% solution of methyl cellulose and administered. Inhibition rate was calculated by comparing with a 0.5% aqueous solution of methyl cellulose as control. That is, the inhibition rate was calculated by the following formula. [formula]

Acute toxicity in mice = test: Acute toxicity in mice; parameters: species or system mouse (Slc:ddy male mice); details: in vivo; mouse, oral administration, death rate after 7 days
Protocol: The compound No. 2 of the present invention was orally administered to 5-15 in each group Slc:ddy male mice weighing 24 to 32 g (5 weeks). With death rate after 7 days value of acute toxicity was measured.

[5] = administered over an extended period of time; cited from earlier work
[6] = in vivo; cited from earlier work

Row | Compound | inhibitory activity against tonic extensive convulsion (share of cases) ([1]; 100 mg/kg) | inhibitory activity against tonic extensive convulsion (share of cases) ([1]; 200 mg/kg) | effect on the immobility time (in words) ([2]; 100 mg/kg) | effect on immobility time of forced swimming test (in words) [2] | effect on tonic extensive convulsion caused by pentylenetetrazole (in words) [3] | Blood pressure (blood pressure; after 15 min.) [mmHg] | Blood pressure (blood pressure; after 30 min.) [mmHg] | Blood pressure (blood pressure; after 60 min.) [mmHg] | Blood pressure (blood pressure; after 120 min.) [mmHg] | activity for decreasing blood pressure (in words) (blood pressure) | inhibition in vivo at 10 mg/kg [4] [%] | inhibition in vivo at 30 mg/kg [4] [%] | effect in decapitation induced hypoxia (in words) [4] | LD50 at 168 h (Acute toxicity in mice) [mg/kg] | inhibitory activity against tonic extensive convulsion (share of cases) ([1]; 50 mg/kg) | effect on the immobility time (in words) ([2]; 50 mg/kg) | effect on the immobility time (in words) ([2]; 200 mg/kg) | side effects caused by central nervous system inhibitory activity [5] | vasodepressor activity and coronary vasodilator activity [6] | effect on maximal electroshock-induced seizures (in words) [1]
1 | C#Cc1cccc(C2C(C(=O)OCC)=C(C)NC(C)=C2C(=O)OCC)c1 [Compound No. 2, 3,5-Diethoxycarbonyl-1,4-dihydro-2,6-dimethyl-4-(3ethynylphenyl)pyridine] | two thirds | all cases | showed the effect on the immobility time | immobility time of forced swimming test reduced | inhibited the tonic extensive convulsion; also recorded: approximately the same extent of the effect of the positive control drug diphenylhydantoin; also recorded: stronger effect than the effect of nimodipine and the effect of nicardipine | 100.6 | 98.4 | 94.8 | 92.9 | very weak activity for decreasing blood pressure | 10.8 | 20.5 | same extent effect as that of flunarizine; also recorded: stronger effect than that of nimodipine and that of nicardipine | 534 |  |  |  |  |  | 
2 | C#Cc1cccc(C2C(C(=O)OCC)=C(C)NC(C)=C2C(=O)OC(C)C)c1 (stereo not shown) [Compound No. 4, 5-Ethoxycarbonyl-3-isopropoxycarbonyl-1,4-dihydro-2,6-dimethyl-4-(3-ethynylphenyl)pyridine] | five sixths |  | showed the effect on the immobility time | immobility time of forced swimming test reduced |  | 100.1 | 97.2 | 93.4 | 90.5 | very weak activity for decreasing blood pressure | 8.8 | 25.7 | same extent effect as that of flunarizine; also recorded: stronger effect than that of nimodipine and that of nicardipine |  | two thirds | showed the effect on the immobility time | showed the effect on the immobility time |  |  | 
3 | Fc1ccc(C(c2ccc(F)cc2)N2CCN(C/C=C/c3ccccc3)CC2)cc1 [Flunarizine, reference compound] | a third | five sixths |  | ineffective; also recorded: no effect |  |  |  |  |  |  | 12.1 | 24.3 |  |  |  |  |  | Parkinson symptom and depression symptom |  | 
4 | COC(=O)C1=C(C)NC(C)=C(C(=O)OC)C1c1ccccc1[N+](=O)[O-] [Nifedipine, dimethyl 2,6-dimethyl-4-(2-nitrophenyl)-1,4-dihydropyridine-3,5-dicarboxylate] |  |  |  |  |  |  |  |  |  |  |  |  |  |  |  |  |  |  | strong | 
5 | COCCOC(=O)C1=C(C)NC(C)=C(C(=O)OC(C)C)C1c1cccc([N+](=O)[O-])c1 (stereo not shown) [Nimodipine, isopropyl, 2-methoxyethyl 2,6-dimethyl-4-(3-nitrophenyl)-1,4-dihydropyridine-3,5-dicarboxylate, reference compound] |  | No inhibitory activity |  | ineffective; also recorded: no effect |  |  |  |  |  |  | 2.1 | 9.3 |  |  |  |  |  |  |  | ineffective
